What is called EC50 is the concentration that produces a half-maximal response.

Eleven substances from patent US12557817B2, “Bioactive peptides having detrimental effects on pest slugs” (priority 2019, dated 2026) can be followed below.

One assay relates to gray garden slugs. As to the kind of experiment: Anti-feeding on peptide-treated lettuce leaf. The format is in vivo, Deroceras reticulatum. The note with it: lettuce treated with 200 nmol peptide; within 1 h. The procedure:
The gray garden slugs utilized herein (Deroceras reticulatum) were collected in Corvallis, Oregon, USA, and maintained with carrot and lettuce in a controlled incubator (13° C., 90% RH, 14: 10=light:dark, dim light). To test for the effect of the peptides on feeding, slugs were fed a diet of lettuce leaf tissues treated with water alone or with 200 nmol of individual peptides (SEQ ID NO: 19, SEQ ID NO: 25, and SEQ ID NO: 26) dissolved in 10 μL water (FIG. 8). Ten gray garden slugs were used for each treatment and each treatment was replicated three times.
QPPLPRA [SEQ ID NO: 25] had an anti-feeding of 66.7%.

Substance APPLPRY [SEQ ID NO: 19] had an anti-feeding of 93.3%.

On to LPRY [SEQ ID NO: 26], for which the anti-feeding is on record as 73.3%.

Staying with this assay, now noted: lettuce treated with 200 nmol peptide; within 2 h.
With QPPLPRA [SEQ ID NO: 25], the anti-feeding amounted to 46.7%.

Substance APPLPRY [SEQ ID NO: 19] showed an anti-feeding of 91.3%.

As for LPRY [SEQ ID NO: 26], the anti-feeding was found to be 48.0%.

The assay is the same for the next values; noted with them: lettuce treated with 200 nmol peptide; within 6 h.
QPPLPRA [SEQ ID NO: 25] gave an anti-feeding of 16.7%.

APPLPRY [SEQ ID NO: 19] returned an anti-feeding of 80.7%.

In turn, LPRY [SEQ ID NO: 26] displayed an anti-feeding of 23.3%.

For another assay, the system named is gray garden slugs. Nature of the assay: Body weight loss and phenotype after peptide injection into slugs. The format is in vivo, Deroceras reticulatum. As to conditions: 10 nmol injected; after 72 h. The procedure:
The gray garden slugs utilized herein (Deroceras reticulatum) were collected in Corvallis, Oregon, USA, and maintained with carrot and lettuce in a controlled incubator (13° C., 90% RH, 14: 10=light:dark, dim light). To test their effects on slugs, peptides of SEQ ID NO: 3 and SEQ ID NO: 4 were dissolved in 5 μl of purified water (10 nmol) and injected into four gray garden slugs per each treatment. Over 80% of the slug body weight was lost after 72 h when either peptide was injected into the slugs, almost 2-fold higher than the water control (FIG. 3).
“QPPVPRY [SEQ ID NO: 4, synthetic peptide, source D. reticulatum]”: the “body weight loss relative to water control” value was ~2 fold.

In the case of “QPPLPRY [SEQ ID NO: 3, synthetic peptide, source D. reticulatum]”, the “body weight loss relative to water control” value is given as ~2 fold.

The assay is the same for the next values; noted with them: injected peptide; FIG. 4.
As for “QPPLPRY [SEQ ID NO: 3, synthetic peptide, source D. reticulatum]”, the “phenotypic effects after injection” value is “excreted large volumes of milky mucus within 1 minute, exhibited body paralysis, extruding tentacles, weight loss and dehydration”.

In the next assay the test system is two slug GPCRs (receptor A and B) expressed in the Sf9 insect cell line. Nature of the assay: Binding assay with peptides: calcium fluorescence (FLIPR Calcium 6) in Sf9 cells expressing slug GPCRs. The format is cell-based, Deroceras reticulatum. The note with it: Sf9 cells expressing receptor A or receptor B; receptor not given. An excerpt: The open reading frames (ORFs) of D. reticulatum GPCRs were inserted into a pIB/V5-His TOPO® TA expression vector (Thermo Fisher Scientific) to be expressed in Sf9 cells as described previously (Choi et al., Gen. Comp. Endocrinol., (2017) 246:354-62). To add a Kozak sequence (G/ANNATGG) in the translation initiation the ORFs of D. reticulatum GPCRs were amplified using specific primer sets. The sequences of two different ORFs of D. reticulatum GPCRs were confirmed after insertion into the expression vector.
Small synthetic peptides derived from the PRXamide family members identified from the gray garden slug and insects (Table 1), were tested to determine their binding activities to two slug GPCRs (receptor A and B) expressed in the Sf9 insect cell line. All peptide ligands of SEQ ID NOs: 1-16 and 19-28, as well as the “RY” dipeptide and “PRY” tripeptide (purity >95%) were synthesized from Peptide 2.0 (Chantily, VA, USA). Sf9 cells were cultured as described previously (Choi et al., supra). About 50,000 cells per well in a 96-well plate (Corning C3603) were incubated at 28° C. overnight. At 48 h, cells were rinsed with 100 μL of fresh medium without fetal bovine serum (FBS). Then, cells were incubated in 95 μL of 1×FLIPR Calcium 6 reagent (Molecular Devices, San Jose, CA, USA) containing 2.5 mM probenecid at room temperature in the dark for 1 h. The reagent-loaded cells were transferred to the Flexstation 3 multimode microplate reader (Molecular Devices) equipped with filters (excitation: 485 nm and emission: 520 nm) and an 8-channel pipettor. Fluorescence measurements from each well on the column were taken every 5 s for 4 min. After 30 s the peptide ligand (10 μL) was added with the pipettor and fluorescent intensity was measured for up to 3 min. Then, 5 μL of 1 μM ionomycin (Thermo Fisher Scientific) was added to the cells to obtain a maximum fluorescence reading. Baseline fluorescence was determined by averaging 5 time points from each well prior to treatment with ligand and the resulting response was expressed as a percent increase in fluorescence relative to baseline value. Cells were tested only once with a ligand then discarded. Data were analyzed using Microsoft Excel as described previously, and half-maximal effective concentration (EC50) values of ligands were determined using GraphPad Prism 6 (GraphPad Software, Inc., San Diego, CA).
The binding affinity to the two receptors of these two peptides, QPPLPRY-NH2 (SEQ ID NO: 3) and QPPVPRY-NH2 (SEQ ID NO: 4), was measured based on specific fluorescent intensity of the Sf9 cells expressing receptor A or receptor B in a 96-well plate. A strong fluorescent signal indicated strong binding activity between the peptide ligand and receptor.
To test the effect of varying individual amino acid residues and varying the length of the peptide of SEQ ID NO: 3, different amino acid residues were replaced with alanine (A), or the overall length of the peptide was reduced by sequentially removing amino acid residues from the N-terminal end of SEQ ID NO: 3 (Table 1, SEQ ID NO: 19, SEQ ID NO: 20, SEQ ID NO: 21, SEQ ID NO: 22, SEQ ID NO: 23, SEQ ID NO: 24, SEQ ID NO: 25, SEQ ID NO: 26, SEQ ID NO: 27, SEQ ID NO: 28). Altered peptides were tested and measured for binding activity with the receptors using the same methods as described above.
For the substance “QPPVPRY [SEQ ID NO: 4, synthetic peptide, source D. reticulatum]”, the EC50 was 12.7 nM.

As for “QPPLPRY [SEQ ID NO: 3, synthetic peptide, source D. reticulatum]”, the EC50 worked out at 1.4 nM.

Staying with this assay, now noted: alanine-substituted or N-terminally reduced peptides of SEQ ID NO: 3; FIG. 5.
For QPALPRY [SEQ ID NO: 21], the “binding activity / activation of the receptors” value (shortened to “binding activity / activation”) was “maintained binding activity and activated the receptors”.

Consider QPPAPRY [SEQ ID NO: 22], for which the “binding activity / activation” value is “maintained binding activity and activated the receptors”.

With APPLPRY [SEQ ID NO: 19], the “binding activity / activation” value was “maintained binding activity and activated the receptors”.

Take PPLPRY [SEQ ID NO: 27]: the “binding activity / activation” value is “retained the ability to activate the receptors”.

Turning to PLPRY [SEQ ID NO: 28], the “binding activity / activation” value is “retained the ability to activate the receptors”.

Consider LPRY [SEQ ID NO: 26], for which the “binding activity / activation” value is “retained the ability to activate the receptors”.

As to QAPLPRY [SEQ ID NO: 20], the “binding activity / activation” value is “maintained binding activity and activated the receptors”.

Another assay deals with gray garden slugs. Nature of the assay: Mortality after peptide injection into slugs. The format is in vivo, Deroceras reticulatum. The note with it: 100 nmol injected; dry conditions (Petri dish); after 24 h. The protocol:
The gray garden slugs utilized herein (Deroceras reticulatum) were collected in Corvallis, Oregon, USA, and maintained with carrot and lettuce in a controlled incubator (13° C., 90% RH, 14: 10=light:dark, dim light). To test their effects on slugs, 100 nmol of each of the peptides (SEQ ID NO: 1, SEQ ID NO: 3, SEQ ID NO: 19, SEQ ID NO: 25 and SEQ ID NO: 26) was dissolved in 5 μL of purified water (100 nmol) and injected into 10 gray garden slugs per each treatment. Under dry conditions, after 24 h the slug mortalities observed were 40% with SEQ ID NO: 1, 70% with SEQ ID NO: 3, 90% with SEQ ID NO: 19, 70% with SEQ ID NO: 25, and 70% with SEQ ID NO: 26. […] Under wet conditions, the slug mortalities observed within 24 h were 40% with SEQ ID NO: 19, 40% with SEQ ID NO: 25, and 30% with SEQ ID NO: 26.
For the substance “PMSMLRL [SEQ ID NO: 1, synthetic peptide, source D. reticulatum]”, the slug mortality came out at 40%.

As for QPPLPRA [SEQ ID NO: 25], the slug mortality is on record as 70%.

In the case of APPLPRY [SEQ ID NO: 19], the slug mortality was determined as 90%.

“QPPLPRY [SEQ ID NO: 3, synthetic peptide, source D. reticulatum]” yielded a slug mortality of 70%.

As for LPRY [SEQ ID NO: 26], the slug mortality is 70%.

Staying with this assay, now noted: 100 nmol injected; wet conditions (Petri dish with wet paper towel); within 24 h.
As to QPPLPRA [SEQ ID NO: 25], the slug mortality is 40%.

Regarding APPLPRY [SEQ ID NO: 19], the slug mortality came to 40%.

Regarding “QPPLPRY [SEQ ID NO: 3, synthetic peptide, source D. reticulatum]”, the slug mortality result was “No mortalities were observed”.

LPRY [SEQ ID NO: 26] yielded a slug mortality of 30%.
